Experimental data published in PubChem BioAssay AID2060495 (Molecular Pharmacology Branch, DTP, NCI, 2025).

Tested on: 521955-158-R2-J5-PDC complex spheroid viability
Experiment: Anticancer human tumor 521955-158-R2-J5-PDC patient-derived pancreatic carcinoma cell line growth inhibition [GQUAD]
Conditions: for IC50: curve of first compound; for viability, T/C: stronger effect = lower value
Text: DNA G-quadruplex Stabilizer Agents in Combinations in Complex Spheroids
A high-throughput screen of multi-cell type tumor spheroids was designed to identify active combinations of DNA G-quadruplex stabilizer agents and targeted small molecules. Complex spheroids include a stromal component modeled by human endothelial cells (HUVEC) and fibroblasts modeled by human mesenchymal stem cells (MSCs). The concentration ranges selected for each drug and investigational agent were based upon clinically achievable concentrations if the clinical Cmax of the agent was known.
Compounds. The drugs and investigational agents: pidnarulex (CX-5461; NSC782164), APTO-253 (NSC789042), BRACO-19 (NSC847499), peposertib (NSC802822), ceralasertib (NSC780249), elimusertib (NSC800525), camonsertib (NSC841442), AZD-1390 (NSC803789), olaparib (NSC753686), talazoparib (NSC767125), ART-558 (NSC835418), sotorasib (NSC818433), MRTX-1133 (NSC836407), SN-38 (NSC673596), topotecan (NSC609699), etoposide (NSC141540), doxorubicin (NSC123127), gemcitabine (NSC613327), 5-fluorouracil (NSC19893), paclitaxel (NSC125973), vemurafenib (NSC761431), panobinostat (NSC761190), R-306465 (JNJ-16241199; NSC773264), adavosertib (NSC754352), TP-3654 (NSC805149), carboplatin (NSC241240), KSQ-4279 (NSC840948), and staurosporine (NSC755774) were obtained from the National Cancer Institute (NCI) Developmental Therapeutics Program Chemical Repository (34). The FDA-approved anticancer drug set is available from the NCI Developmental Therapeutics Program. […] The stock solutions were prepared in dimethyl sulfoxide (DMSO, Sigma-Aldrich, St. Louis, MO, cat. D2650) at 800-fold the tested concentration and stored at -70 degrees C prior to their use. All drugs and investigational agents were tested over a range starting from a high concentration at or near the clinical Cmax and decreasing in half-log increments. If the clinical Cmax for an agent had not been determined, the highest concentration tested was 10 microM.
2.3 Cell Culture. All cells were maintained in an incubator at 37 degrees C and 5% CO2 with 95% humidity. The PDC lines were cultured according to standard operating procedures established by the NCI PDMR. All PDCs were thawed and cultured in Matrigel-coated flasks prepared with a working solution of 1X Ham's F-12 nutrient mix, without supplementation (Invitrogen, cat. 11765054), 100 U/mL penicillin-streptomycin (Invitrogen, cat. 15140122), and 2.5% Matrigel (Corning Inc., cat. 354248) for the first three passages. The 857933-349-R-J2-PDC line was cultured in 6C/Colon 1B media, which includes advanced DMEM/F-12 (Thermo Fisher Scientific, cat. 12634028), 10 mM HEPES (Thermo Fisher Scientific, cat. 15630080), 1X GlutaMAX supplement (Thermo Fisher Scientific, cat. 35050061), 0.1 mg/mL primocin (InvivoGen, cat. ant-pm-2), 10% defined fetal bovine serum, heat inactivated (HyClone Laboratories Inc., cat. SH30070.03HI), 50% L-WRN conditioned media (ATCC, cat. CRL-3276), 1.25 mM N-Acetyl-L-cysteine (Sigma-Aldrich, cat. A9165), 10 mM nicotinamide (Sigma-Aldrich, cat. N0636), 1X B-27 supplement (Thermo Fisher Scientific, cat. 17504044), 1X N-2 supplement (Thermo Fisher Scientific, cat. 17502048), 10 microM Y-27632 dihydrochloride (Tocris Bioscience, cat. 1254), and 50 ng/mL human EGF recombinant protein (Thermo Fisher Scientific, cat. PHG0311). The 485176-168-R4-J1-PDC line was cultured in Panc media, which includes all 6C/Colon 1B media components plus 100 ng/mL human FGF-10 (Thermo Fisher Scientific, cat. 100-26), 500 nM SB-431542 (Selleckchem, cat. S1067), and gastrin (Tocris, cat. 3006).
[…]

[1] = second compound 0.0316 µM, first compound 0.0316 µM
[2] = second compound 0.0316 µM, first compound 0.1 µM
[3] = second compound 0.0316 µM, first compound 0.316 µM
[4] = second compound 0.0316 µM, first compound 1 µM
[5] = second compound 0.0316 µM, first compound 3.16 µM
[6] = second compound 0.0316 µM, first compound 10 µM
[7] = second compound 0.1 µM, first compound 0.0316 µM
[8] = second compound 0.1 µM, first compound 0.1 µM
[9] = second compound 0.1 µM, first compound 0.316 µM
[10] = second compound 0.1 µM, first compound 1 µM
[11] = second compound 0.1 µM, first compound 3.16 µM
[12] = second compound 0.1 µM, first compound 10 µM
[13] = second compound 0.316 µM, first compound 0.0316 µM
[14] = second compound 0.316 µM, first compound 0.1 µM
[15] = second compound 0.316 µM, first compound 0.316 µM
[16] = second compound 0.316 µM, first compound 1 µM
[17] = second compound 0.316 µM, first compound 3.16 µM
[18] = second compound 0.316 µM, first compound 10 µM
[19] = second compound 1 µM, first compound 0.0316 µM
[20] = second compound 1 µM, first compound 0.1 µM
[21] = second compound 1 µM, first compound 0.316 µM
[22] = second compound 1 µM, first compound 1 µM
[23] = second compound 1 µM, first compound 3.16 µM
[24] = second compound 1 µM, first compound 10 µM
[25] = second compound 3.16 µM, first compound 0.0316 µM
[26] = second compound 3.16 µM, first compound 0.1 µM
[27] = second compound 3.16 µM, first compound 0.316 µM
[28] = second compound 3.16 µM, first compound 1 µM
[29] = second compound 3.16 µM, first compound 3.16 µM
[30] = second compound 3.16 µM, first compound 10 µM
[31] = second compound 10 µM, first compound 0.0316 µM
[32] = second compound 10 µM, first compound 0.1 µM
[33] = second compound 10 µM, first compound 0.316 µM
[34] = second compound 10 µM, first compound 1 µM
[35] = second compound 10 µM, first compound 3.16 µM
[36] = second compound 10 µM, first compound 10 µM
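Note: spheroids exposed to agents for one week before reading.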
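Throughout, for viability, T/C: 100% = DMSO vehicle control viability.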

Q: `C#Cc1c(F)ccc2cc(O)cc(-c3ncc4c(N5CC6CCC(C5)N6)nc(OCC56CCCN5CC(F)C6)nc4c3F)c12` (centres undefined) + CN(C)c1ccc(Nc2c3ccc(NC(=O)CCN4CCCC4)cc3nc3cc(NC(=O)CCN4CCCC4)ccc23)cc1 was tested. Which IC50 (second compound 0.0316 µM) did it give?
A: 1770 nM

Q: And the IC50 (second compound 0.1 µM)?
A: 1850 nM

Q: And the IC50 (second compound 0.316 µM)?
A: 3390 nM

Q: And the IC50 (second compound 1 µM)?
A: 1400 nM

Q: And the IC50 (second compound 3.16 µM)?
A: 159 nM

Q: And the IC50 (second compound 10 µM)?
A: < 31.6 nM

Q: And the viability, T/C [1]?
A: 66.3%

Q: What about the viability, T/C [2] of the same compound?
A: 62.5%

Q: And the viability, T/C [3]?
A: 57.5%

Q: And the viability, T/C [4]?
A: 48.1%

Q: And the viability, T/C [5]?
A: 52.5%

Q: And the viability, T/C [6]?
A: 41.7%

Q: And the viability, T/C [7]?
A: 74.2%

Q: What about the viability, T/C [8] of the same compound?
A: 52.2%

Q: What about the viability, T/C [9] of the same compound?
A: 62%

Q: What about the viability, T/C [10] of the same compound?
A: 60.8%

Q: What about the viability, T/C [11] of the same compound?
A: 40.6%

Q: And the viability, T/C [12]?
A: 33.5%

Q: And the viability, T/C [13]?
A: 61.3%

Q: And the viability, T/C [14]?
A: 57%

Q: What about the viability, T/C [15] of the same compound?
A: 62.8%

Q: What about the viability, T/C [16] of the same compound?
A: 52.5%

Q: What about the viability, T/C [17] of the same compound?
A: 53.1%

Q: And the viability, T/C [18]?
A: 32.6%

Q: And the viability, T/C [19]?
A: 74.8%

Q: What about the viability, T/C [20] of the same compound?
A: 56.4%

Q: What about the viability, T/C [21] of the same compound?
A: 60.1%

Q: And the viability, T/C [22]?
A: 50%

Q: And the viability, T/C [23]?
A: 51.6%

Q: And the viability, T/C [24]?
A: 34.2%

Q: What about the viability, T/C [25] of the same compound?
A: 49.7%

Q: And the viability, T/C [26]?
A: 63.3%

Q: What about the viability, T/C [27] of the same compound?
A: 40.5%

Q: And the viability, T/C [28]?
A: 35.8%

Q: And the viability, T/C [29]?
A: 29%

Q: What about the viability, T/C [30] of the same compound?
A: 16.8%

Q: What about the viability, T/C [31] of the same compound?
A: 31.8%

Q: What about the viability, T/C [32] of the same compound?
A: 23.6%

Q: What about the viability, T/C [33] of the same compound?
A: 15.2%

Q: And the viability, T/C [34]?
A: 10.6%

Q: And the viability, T/C [35]?
A: 6.1%

Q: And the viability, T/C [36]?
A: 1.84%

Q: What does the source list for `COc1cccc2c1C(=O)c1c(O)c3c(c(O)c1C2=O)CC(O)(C(=O)CO)CC3OC1CC(N)C(O)C(C)O1` (centres undefined) + CN(C)c1ccc(Nc2c3ccc(NC(=O)CCN4CCCC4)cc3nc3cc(NC(=O)CCN4CCCC4)ccc23)cc1?
A: IC50 (second compound 0.0316 µM): 164 nM; IC50 (second compound 0.1 µM): 221 nM; IC50 (second compound 0.316 µM): 208 nM; IC50 (second compound 1 µM): 186 nM; IC50 (second compound 3.16 µM): 176 nM; IC50 (second compound 10 µM): 422 nM; viability, T/C [1]: 85.5%; viability, T/C [2]: 56.6%; viability, T/C [3]: 31.2%; viability, T/C [4]: 37.4%; viability, T/C [5]: 3.76%; viability, T/C [6]: 2.73%; viability, T/C [7]: 97.3%; viability, T/C [8]: 68.8%; viability, T/C [9]: 37.8%; viability, T/C [10]: 29.9%; viability, T/C [11]: 2.6%; viability, T/C [12]: 2.75%; viability, T/C [13]: 101%; viability, T/C [14]: 67.6%; viability, T/C [15]: 34.3%; viability, T/C [16]: 33.3%; viability, T/C [17]: 1.27%; viability, T/C [18]: 2.99%; viability, T/C [19]: 85.9%; viability, T/C [20]: 67.9%; viability, T/C [21]: 29.1%; viability, T/C [22]: 30.7%; viability, T/C [23]: 0.97%; viability, T/C [24]: 3%; viability, T/C [25]: 83%; viability, T/C [26]: 58.2%; viability, T/C [27]: 34.1%; viability, T/C [28]: 36.5%; viability, T/C [29]: 1.22%; viability, T/C [30]: 1.89%; viability, T/C [31]: 61.9%; viability, T/C [32]: 61.7%; viability, T/C [33]: 52.9%; viability, T/C [34]: 33.1%; viability, T/C [35]: 1.41%; viability, T/C [36]: 1.9%
